Experimental data as given in PubChem BioAssay (NCI).
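Briefly, cells in 96-well plates were exposed to five compound concentrations for 48 h, and endpoints were estimated by linear interpolation. The concentration for 50% growth inhibition is given as GI50. TGI: concentration producing complete growth inhibition.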

Legend:
Test in all cases: DTP human tumour cell line panel, 48 h
A549 NSCLC = test system: A549 NSCLC
SK-OV-3 ovarian = test system: SK-OV-3 ovarian
SF-268 CNS = test system: SF-268 CNS
EKVX NSCLC = test system: EKVX NSCLC
M14 melanoma = test system: M14 melanoma
HS 578T breast = test system: HS 578T breast
BT-549 breast = test system: BT-549 breast
DU-145 prostate = test system: DU-145 prostate
TK-10 renal = test system: TK-10 renal
CCRF-CEM leukemia = test system: CCRF-CEM leukemia
SW-620 colon = test system: SW-620 colon
CAKI-1 renal = test system: CAKI-1 renal
MALME-3M melanoma = test system: MALME-3M melanoma
K-562 leukemia = test system: K-562 leukemia
UO-31 renal = test system: UO-31 renal
HCC-2998 colon = test system: HCC-2998 colon
NCI/ADR-RES ovarian = test system: NCI/ADR-RES ovarian
KM12 colon = test system: KM12 colon
HOP-92 NSCLC = test system: HOP-92 NSCLC
SK-MEL-28 melanoma = test system: SK-MEL-28 melanoma
OVCAR-5 ovarian = test system: OVCAR-5 ovarian
HCT-15 colon = test system: HCT-15 colon
HCT-116 colon = test system: HCT-116 colon
NCI-H23 lung = test system: NCI-H23 lung
SN12C renal = test system: SN12C renal
MOLT-4 leukemia = test system: MOLT-4 leukemia
UACC-62 melanoma = test system: UACC-62 melanoma
OVCAR-8 ovarian = test system: OVCAR-8 ovarian
NCI-H522 lung = test system: NCI-H522 lung
ACHN renal = test system: ACHN renal
HOP-62 NSCLC = test system: HOP-62 NSCLC
NCI-H460 lung = test system: NCI-H460 lung
A498 renal = test system: A498 renal
SK-MEL-2 melanoma = test system: SK-MEL-2 melanoma
MDA-MB-231 breast = test system: MDA-MB-231 breast
RPMI-8226 leukemia = test system: RPMI-8226 leukemia
U251 CNS = test system: U251 CNS
SF-539 CNS = test system: SF-539 CNS
IGROV1 ovarian = test system: IGROV1 ovarian
SNB-19 CNS = test system: SNB-19 CNS
HT29 colon = test system: HT29 colon
NCI-H226 lung = test system: NCI-H226 lung
MCF7 breast = test system: MCF7 breast
OVCAR-4 ovarian = test system: OVCAR-4 ovarian
UACC-257 melanoma = test system: UACC-257 melanoma
PC-3 prostate = test system: PC-3 prostate
SR leukemia = test system: SR leukemia
MDA-MB-435 = test system: MDA-MB-435
LOX IMVI melanoma = test system: LOX IMVI melanoma
HL-60(TB) leukemia = test system: HL-60(TB) leukemia
786-0 renal = test system: 786-0 renal
RXF 393 renal = test system: RXF 393 renal
SF-295 CNS = test system: SF-295 CNS
SK-MEL-5 melanoma = test system: SK-MEL-5 melanoma
SNB-75 CNS = test system: SNB-75 CNS

COc1ccccc1NC1=C(Cl)C(=O)c2nc(C)ccc2C1=O
GI50 (A549 NSCLC): 2440 nM | TGI (A549 NSCLC): 6240 nM | GI50 (SK-OV-3 ovarian): 12600 nM | TGI (SK-OV-3 ovarian): 27500 nM | GI50 (SF-268 CNS): 1530 nM | TGI (SF-268 CNS): 3050 nM | GI50 (EKVX NSCLC): 1610 nM | TGI (EKVX NSCLC): 3050 nM | GI50 (M14 melanoma): 1820 nM | TGI (M14 melanoma): 3810 nM | GI50 (HS 578T breast): 2270 nM | TGI (HS 578T breast): 5640 nM | GI50 (BT-549 breast): 1720 nM | TGI (BT-549 breast): 3270 nM | GI50 (DU-145 prostate): 1720 nM | TGI (DU-145 prostate): 3110 nM | GI50 (TK-10 renal): 2340 nM | TGI (TK-10 renal): 3860 nM | GI50 (CCRF-CEM leukemia): 1940 nM | TGI (CCRF-CEM leukemia): 8210 nM | GI50 (SW-620 colon): 1840 nM | TGI (SW-620 colon): 3730 nM | GI50 (CAKI-1 renal): 1500 nM | TGI (CAKI-1 renal): 2870 nM | GI50 (MALME-3M melanoma): 1710 nM | TGI (MALME-3M melanoma): 3190 nM | GI50 (K-562 leukemia): 290 nM | TGI (K-562 leukemia): 2940 nM | GI50 (UO-31 renal): 1420 nM | TGI (UO-31 renal): 2730 nM | GI50 (HCC-2998 colon): 1870 nM | TGI (HCC-2998 colon): 3460 nM | GI50 (NCI/ADR-RES ovarian): 2030 nM | TGI (NCI/ADR-RES ovarian): 5160 nM | GI50 (KM12 colon): 1490 nM | TGI (KM12 colon): 3080 nM | GI50 (HOP-92 NSCLC): 1850 nM | TGI (HOP-92 NSCLC): 3300 nM | GI50 (SK-MEL-28 melanoma): 1850 nM | TGI (SK-MEL-28 melanoma): 3340 nM | GI50 (OVCAR-5 ovarian): 1860 nM | TGI (OVCAR-5 ovarian): 3420 nM | GI50 (HCT-15 colon): 1330 nM | TGI (HCT-15 colon): 3020 nM | GI50 (HCT-116 colon): 1530 nM | TGI (HCT-116 colon): 4160 nM | GI50 (NCI-H23 lung): 1470 nM | TGI (NCI-H23 lung): 3310 nM | GI50 (SN12C renal): 1700 nM | TGI (SN12C renal): 3290 nM | GI50 (MOLT-4 leukemia): 2270 nM | TGI (MOLT-4 leukemia): 8600 nM | GI50 (UACC-62 melanoma): 1820 nM | TGI (UACC-62 melanoma): 3370 nM | GI50 (OVCAR-8 ovarian): 1610 nM | TGI (OVCAR-8 ovarian): 3250 nM | GI50 (NCI-H522 lung): 1810 nM | TGI (NCI-H522 lung): 3360 nM | GI50 (ACHN renal): 1470 nM | TGI (ACHN renal): 2800 nM | GI50 (HOP-62 NSCLC): 2410 nM | TGI (HOP-62 NSCLC): 6980 nM | GI50 (NCI-H460 lung): 3220 nM | TGI (NCI-H460 lung): 12000 nM | GI50 (A498 renal): 1900 nM | TGI (A498 renal): 4600 nM | GI50 (SK-MEL-2 melanoma): 1810 nM | TGI (SK-MEL-2 melanoma): 3350 nM | GI50 (MDA-MB-231 breast): 1190 nM | TGI (MDA-MB-231 breast): 2530 nM | GI50 (RPMI-8226 leukemia): 1570 nM | TGI (RPMI-8226 leukemia): 4610 nM | GI50 (U251 CNS): 1850 nM | TGI (U251 CNS): 3730 nM | GI50 (SF-539 CNS): 1680 nM | TGI (SF-539 CNS): 3130 nM | GI50 (IGROV1 ovarian): 1460 nM | TGI (IGROV1 ovarian): 2920 nM | GI50 (SNB-19 CNS): 1810 nM | TGI (SNB-19 CNS): 3720 nM | GI50 (HT29 colon): 2130 nM | TGI (HT29 colon): 4490 nM | GI50 (NCI-H226 lung): 1930 nM | TGI (NCI-H226 lung): 4520 nM | GI50 (MCF7 breast): 1780 nM | TGI (MCF7 breast): 4490 nM | GI50 (OVCAR-4 ovarian): 1210 nM | TGI (OVCAR-4 ovarian): 2490 nM | GI50 (UACC-257 melanoma): 1570 nM | TGI (UACC-257 melanoma): 3090 nM | GI50 (PC-3 prostate): 1210 nM | TGI (PC-3 prostate): 2580 nM | GI50 (SR leukemia): 794 nM | TGI (SR leukemia): 4250 nM | GI50 (MDA-MB-435): 1700 nM | TGI (MDA-MB-435): 3110 nM | GI50 (LOX IMVI melanoma): 952 nM | TGI (LOX IMVI melanoma): 2360 nM | GI50 (HL-60(TB) leukemia): 1370 nM | TGI (HL-60(TB) leukemia): 3520 nM | GI50 (786-0 renal): 1910 nM | TGI (786-0 renal): 3610 nM | GI50 (RXF 393 renal): 1420 nM | TGI (RXF 393 renal): 2760 nM | GI50 (SF-295 CNS): 1850 nM | TGI (SF-295 CNS): 3420 nM | GI50 (SK-MEL-5 melanoma): 1750 nM | TGI (SK-MEL-5 melanoma): 3170 nM | GI50 (SNB-75 CNS): 1500 nM | TGI (SNB-75 CNS): 2840 nM
